From patent US20240277795A1, “INHIBITORS OF CYSTEINE PROTEASES AND METHODS OF USE THEREOF” (Pardes Biosciences, Inc., priority 2021, published 2024)
Read-outs that look alike come from different tables or passages of the source.

Experiments:
[1] = molecular target: 229E Mpro (Human coronavirus 229E, UniProt P0C6X1); assay: 229E Mpro enzymatic assay; type: biochemical, HCoV 229E
Method: (§1) Compounds were assayed using standard methods to assess compound activity and IC50. As an exemplary for assessment of the SARS-COV2 Mpro, the C-His6-tagged Mpro (NC_045512) was cloned, expressed in E. coli and purified. The assay buffer contained 20 mM of Tris-HCl (pH 7.3), 100 mM of NaCl, 1 mM of EDTA, 5 mM of TCEP and 0.1% BSA. The final concentrations of the Mpro protein and substrate were 25 nM and 25 μM, respectively, in the Mpro enzymatic assay. The Km of the Mpro substrate for the protease was 13.5 μM.
(§2) The compounds were added to an assay plate. For 100% inhibition control (HPE, hundred percent effect), 1 μM GC376 was added. For no inhibition control (ZPE, zero percent effect), no compound was added.
(§3) IC50 values of compounds were calculated with the GraphPad Prism software using the nonlinear regression model of log(inhibitor) vs. response—Variable slope (four parameters). The inhibition activity was calculated using the formula below, IC50 values is calculated using the Inhibition % data.
(§4) [formula] • #HEP: Hundred percent effect controls. Containing substrate+enzyme+1 μM GC376. • ZPE: Zero percent effective controls. Containing enzyme+substrate, no compound. • Sample: Compound activity testing wells. Containing compound+enzyme+substrate. • BG: Compound background control wells. Containing compound+substrate, no enzyme.

[2] = molecular target: OC43 Mpro (Human coronavirus OC43, UniProt P0C6X6); assay: OC43 Mpro enzymatic assay; type: biochemical, HCoV OC43
Sequence of OC43 Mpro (P0C6X6 3247-3549): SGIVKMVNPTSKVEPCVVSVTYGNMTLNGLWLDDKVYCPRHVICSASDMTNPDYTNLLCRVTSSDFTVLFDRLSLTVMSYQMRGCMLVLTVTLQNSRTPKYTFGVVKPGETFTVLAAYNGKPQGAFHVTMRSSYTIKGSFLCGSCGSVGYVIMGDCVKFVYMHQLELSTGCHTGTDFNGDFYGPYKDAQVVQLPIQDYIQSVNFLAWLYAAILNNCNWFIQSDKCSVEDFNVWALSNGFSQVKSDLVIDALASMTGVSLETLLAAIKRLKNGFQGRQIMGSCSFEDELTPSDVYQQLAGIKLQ
Method: as §1, §2, §3, §4

[3] = molecular target: SARS-COV2 Mpro (Severe acute respiratory syndrome coronavirus 2, UniProt P0DTD1); assay: COVID-19 (nCoV-2019, SARS-CoV2) Mpro enzymatic assay; type: biochemical; conditions: read-out: COVID-19 Mpro IC50
Method: as §1, with “assay.” for “assay. The Km of the Mpro substrate for the protease was 13.5 μM.”
The compounds were added to an assay plate. For 100% inhibition control (HPE, hundred percent effect), 1 μM GC376 was added.
as §3
[formula] • #HEP: Hundred percent effect controls. […] Containing enzyme+substrate, no compound. • Sample: Compound activity testing wells. Containing compound+enzyme+substrate. • BG: Compound background control wells. Containing compound+substrate, no enzyme.

Sequence of 229E Mpro (P0C6X1 2966-3267): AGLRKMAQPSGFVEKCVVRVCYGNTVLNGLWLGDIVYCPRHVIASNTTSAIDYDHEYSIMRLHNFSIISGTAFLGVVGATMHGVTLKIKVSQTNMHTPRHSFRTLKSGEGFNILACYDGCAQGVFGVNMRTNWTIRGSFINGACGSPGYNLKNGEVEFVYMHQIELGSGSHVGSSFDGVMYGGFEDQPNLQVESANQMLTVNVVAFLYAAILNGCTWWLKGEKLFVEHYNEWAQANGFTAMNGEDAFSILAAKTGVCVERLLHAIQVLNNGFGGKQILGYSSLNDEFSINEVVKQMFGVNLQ

SMILES | IC50 ([1]; Table 3) [nM] | IC50 ([2]; Table 3) [nM] | IC50 ([3]; Table 3) [nM] | IC50 ([1]; Table 5) [nM] | IC50 ([2]; Table 5) [nM] | IC50 ([3]; Table 5) [nM]
C[C@@H](OC1(C)CCC1)[C@H](NC(=O)C(F)(F)F)C(=O)N1C[C@H]2[C@@H]([C@H]1C(=O)N[C@H](C#N)C[C@@H]1CC(C)(C)NC1=O)C2(C)C [Compound 308, (1R,2S,5S)—N-[(1S)-1-cyano-2-[(3R)-5,5-dimethyl-2-oxo-pyrrolidin-3-yl]ethyl]-6,6-dimethyl-3-[(2S,3R)-3-(1-methylcyclobutoxy)-2-[(2,2,2-trifluoroacetyl)amino]butanoyl]-3-azabicyclo[3.1.0]hexane-2-carboxamide] | < 2000 | < 2000 | < 2000 | – | – | –
C[C@@H](OCC(F)(F)F)[C@H](NC(=O)C(F)(F)F)C(=O)N1C[C@H]2[C@@H]([C@H]1C(=O)N[C@H](C#N)C[C@@H]1CC(C)(C)NC1=O)C2(C)C [Compound 312, (1R,2S,5S)—N-[(1S)-1-cyano-2-[(3R)-5,5-dimethyl-2-oxo-pyrrolidin-3-yl]ethyl]-6,6-dimethyl-3-[(2S,3R)-2-[(2,2,2-trifluoroacetyl)amino]-3-(2,2,2-trifluoroethoxy)butanoyl]-3-azabicyclo[3.1.0]hexane-2-carboxamide] | – | – | – | < 2000 | < 2000 | < 2000
C[C@@H](OC1(C)CCC1)[C@H](NC(=O)C(F)(F)F)C(=O)N1C[C@H]2[C@@H]([C@H]1C(=O)N[C@H](C#N)C[C@@H]1CC3(CC3)NC1=O)C2(C)C [Compound 314, (1R,2S,5S)—N-[(1S)-1-cyan-2-[(6R)-5-oxo-4-azaspiro[2.4]heptan-6-yl]ethyl]-6,6-dimethyl-3-[(2S,3R)-3-(1-methylcyclobutoxy)-2-[(2,2,2-trifluoroacetyl)amino]butanoyl]-3-azabicyclo[3.1.0]hexane-2-carboxamide] | – | – | – | < 2000 | < 2000 | < 2000
C[C@@H](OC1(C)CC1)[C@H](NC(=O)C(F)(F)F)C(=O)N1C[C@H]2[C@@H]([C@H]1C(=O)N[C@H](C#N)C[C@@H]1CC3(CC3)NC1=O)C2(C)C [Compound 315, (1R,2S,5S)—N-[(1S)-1-cyan-2-[(6R)-5-oxo-4-azaspiro[2.4]heptan-6-yl]ethyl]-6,6-dimethyl-3-[(2S,3R)-3-(1-methylcyclopropoxy)-2-[(2,2,2-trifluoroacetyl)amino]butanoyl]-3-azabicyclo[3.1.0]hexane-2-carboxamide] | < 2000 | < 2000 | < 2000 | – | – | –
CC1(C)C[C@@H](C[C@@H](C#N)NC(=O)[C@@H]2[C@@H]3[C@H](CN2C(=O)C2(NC(=O)C(F)(F)F)CCC2)C3(C)C)C(=O)N1 [Compound 316, (1R,2S,5S)—N-[(1S)-1-cyano-2-[(3R)-5,5-dimethyl-2-oxo-pyrrolidin-3-yl]ethyl]-6,6-dimethyl-3-[1-[(2,2,2-trifluoroacetyl)amino]cyclobutanecarbonyl]-3-azabicyclo[3.1.0]hexane-2-carboxamide] | > 30000 | 10000 to 30000 | < 2000 | – | – | –
C[C@@H](OCC(F)(F)F)[C@H](NC(=O)C(F)(F)F)C(=O)N1C[C@H]2[C@@H]([C@H]1C(=O)N[C@H](C#N)C[C@@H]1CC3(CC3)NC1=O)C2(C)C [Compound 319, (1R,2S,5S)—N-[(1S)-1-cyan-2-[(6R)-5-oxo-4-azaspiro[2.4]heptan-6-yl]ethyl]-6,6-dimethyl-3-[(2S,3R)-2-[(2,2,2-trifluoroacetyl)amino]-3-(2,2,2-trifluoroethoxy)butanoyl]-3-azabicyclo[3.1.0]hexane-2-carboxamide] | – | – | – | < 2000 | < 2000 | < 2000
C[C@@H](OC1(C2CC2)CC1)[C@H](NC(=O)C(F)(F)F)C(=O)N1C[C@H]2[C@@H]([C@H]1C(=O)N[C@H](C#N)C[C@@H]1CC(C)(C)NC1=O)C2(C)C [Compound 324, (1R,2S,5S)—N-[(1S)-1-cyano-2-[(3R)-5,5-dimethyl-2-oxo-pyrrolidin-3-yl]ethyl]-3-[(2S,3R)-3-(1-cyclopropylcyclopropoxy)-2-[(2,2,2-trifluoroacetyl)amino]butanoyl]-6,6-dimethyl-3-azabicyclo[3.1.0]hexane-2-carboxamide] | < 2000 | < 2000 | < 2000 | – | – | –
C[C@@H](OC1CC1)[C@H](NC(=O)C(F)(F)F)C(=O)N1C[C@H]2[C@@H]([C@H]1C(=O)N[C@H](C#N)C[C@@H]1CC3(CC3)NC1=O)C2(C)C [Compound 326, (1R,2S,5S)—N-[(1S)-1-cyan-2-[(6R)-5-oxo-4-azaspiro[2.4]heptan-6-yl]ethyl]-3-[(2S,3R)-3-(cyclopropoxy)-2-[(2,2,2-trifluoroacetyl)amino]butanoyl]-6,6-dimethyl-3-azabicyclo[3.1.0]hexane-2-carboxamide] | – | – | – | < 2000 | < 2000 | < 2000
C[C@@H](OC1CCC1)[C@H](NC(=O)C(F)(F)F)C(=O)N1C[C@H]2[C@@H]([C@H]1C(=O)N[C@H](C#N)C[C@@H]1CC3(CC3)NC1=O)C2(C)C [Compound 327, (1R,2S,5S)—N-[(1S)-1-cyan-2-[(6R)-5-oxo-4-azaspiro[2.4]heptan-6-yl]ethyl]-3-[(2S,3R)-3-(cyclobutoxy)-2-[(2,2,2-trifluoroacetyl)amino]butanoyl]-6,6-dimethyl-3-azabicyclo[3.1.0]hexane-2-carboxamide] | – | – | – | < 2000 | < 2000 | < 2000
CC1(C)C[C@@H](C[C@@H](C#N)NC(=O)[C@@H]2[C@@H]3[C@H](CN2C(=O)[C@@H](NC(=O)C(F)(F)F)C2CCC(C)(C)O2)C3(C)C)C(=O)N1 (stereo partly drawn) [Compound 328] | < 2000 | < 2000 | < 2000 | – | – | –
C[C@@H](OC1CC(F)(F)C1)[C@H](NC(=O)C(F)(F)F)C(=O)N1C[C@H]2[C@@H]([C@H]1C(=O)N[C@H](C#N)C[C@@H]1CC(C)(C)NC1=O)C2(C)C [Compound 330, (1R,2S,5S)—N-[(1S)-1-cyano-2-[(3R)-5,5-dimethyl-2-oxo-pyrrolidin-3-yl]ethyl]-3-[(2S,3R)-3-(3,3-difluorocyclobutoxy)-2-[(2,2,2-trifluoroacetyl)amino]butanoyl]-6,6-dimethyl-3-azabicyclo[3.1.0]hexane-2-carboxamide] | < 2000 | < 2000 | < 2000 | – | – | –
C[C@@H](OC1(C2CC2)CC1)[C@H](NC(=O)C(F)(F)F)C(=O)N1C[C@H]2[C@@H]([C@H]1C(=O)N[C@H](C#N)C[C@@H]1CC3(CC3)NC1=O)C2(C)C [Compound 331, (1R,2S,5S)—N-[(1S)-1-cyano-2-[(6R)-5-oxo-4-azaspiro[2.4]heptan-6-yl]ethyl]-3-[(2S,3R)-3-(1-cyclopropylcyclopropoxy)-2-[(2,2,2-trifluoroacetyl)amino]butanoyl]-6,6-dimethyl-3-azabicyclo[3.1.0]hexane-2-carboxamide] | < 2000 | < 2000 | < 2000 | – | – | –
C[C@@H](OC1(C#N)CC1)[C@H](NC(=O)C(F)(F)F)C(=O)N1C[C@H]2[C@@H]([C@H]1C(=O)N[C@H](C#N)C[C@@H]1CC(C)(C)NC1=O)C2(C)C [Compound 334, (1R,2S,5S)-3-[(2S,3R)-3-(1-cyanocyclopropoxy)-2-[(2,2,2-trifluoroacetyl)amino]butanoyl]-N-[(1S)-1-cyano-2-[(3R)-5,5-dimethyl-2-oxo-pyrrolidin-3-yl]ethyl]-6,6-dimethyl-3-azabicyclo[3.1.0]hexane-2-carboxamide] | – | – | – | < 2000 | < 2000 | < 2000
C[C@@H](OC1(C#N)CC1)[C@H](NC(=O)C(F)(F)F)C(=O)N1C[C@H]2[C@@H]([C@H]1C(=O)N[C@H](C#N)C[C@@H]1CC3(CC3)NC1=O)C2(C)C [Compound 335] | – | – | – | < 2000 | < 2000 | < 2000
C[C@@H](OC(C)(C)C(F)(F)F)[C@H](NC(=O)C(F)(F)F)C(=O)N1C[C@H]2[C@@H]([C@H]1C(=O)N[C@H](C#N)C[C@@H]1CC(C)(C)NC1=O)C2(C)C [Compound 357, (1R,2S,5S)—N-[(1S)-1-cyano-2-[(3R)-5,5-dimethyl-2-oxo-pyrrolidin-3-yl]ethyl]-6,6-dimethyl-3-[(2S,3R)-2-[(2,2,2-trifluoroacetyl)amino]-3-(2,2,2-trifluoro-1,1-dimethyl-ethoxy)butanoyl]-3-azabicyclo[3.1.0]hexane-2-carboxamide] | – | – | – | < 2000 | < 2000 | < 2000
